Assay type in all cases: cell-based
Experiment [1] relates to microtubule cytoskeleton of human CG neuroblastoma cells. The experiment is described as follows: Antimicrotubule activity, tubulin immunofluorescence microscopy. The note with it: 2 hr at 37° C., read-out: Concentration where microtubule destabilization occurs. On the procedure: The compounds of the invention according to formula I are effective in destabilizing microtubules, thus are useful in treating certain neoplastic diseases. Indirect immunofluorescence microscopy using the monoclonal antibodies to tubulin is used herein to determine the activity of the compounds of this invention in promoting depolymerization of the microtubule cytoskeleton in cultured cells. The following assay was employed.
Cultured human CG neuroblastoma cells were seeded 1:3 from confluent cultures onto sterile 11×22 mm coverslips in 6 well tissue culture plates 16 hr prior to treatment. The following day, the tissue culture medium is removed and the cells are exposed to various concentrations of compounds of this invention in Krebs Ringer Hepes (KRH) buffer containing a final concentration of 0.5% DMSO as carrier. Incubations were performed at 37° C. in a humidified 5% CO2 atmosphere for 2 hr. After incubation, the cells were fixed in 3% TEM grade formaldehyde in PBS for 45 min at room temperature.
To visualize the effects of the compounds of the invention on the microtubule cytoskeleton, the cells were processed for tubulin immunofluorescence. Briefly, the cells were permeabilized in 0.5% Triton-X 100 in PBS for 5 min. The cells were washed 2× with PBS and aldehydes reduced using 0.5 mg/ml NaBH4 in PBS for 5 min. Subsequently, the cells were blocked for 10 min in 1.5% BSA and 1.5% nonfat dry milk in PBS (blocking solution, BS) for 10 min. The cells were then incubated for 30 min at 37° C. with the monoclonal antibody Tu27B which recognizes b-tubulin (dilution 1:20 in BS). Subsequently, the cells were washed 2× in PBS and once in BS. The cells were then incubated for 30 min at 37° C. with sheep antimouse IgG conjugated to FITC. After incubation, the cells were washed 2× in PBS and once in BS and incubated for 30 min at 37° C. with rabbit antisheep IgG conjugated to FITC. The cells were rinsed in PBS, counterstained with Hoechst 33285 in PBS (1 μg/ml), and rinsed in PBS. The coverslips were mounted in 9:1 glycerol:PBS containing 1 mg/ml p-phenylenediamine and sealed with nail polish.
The cells were viewed using a Jenalumar epifluorescence microscope equipped with the proper filters for Fluorescein Isothiocyanate (FITC) excitation and emission. Lack of effect of a compound is evidenced by the presence of an intact microtubule network in interphase cells, or a mitotic spindle in dividing cells. Antineoplastic compounds of the invention at effective doses result in the disappearance of microtubules in both interphase and mitotic cells.

Experiment [2] deals with Streptococcus pneumoniae SRI 1167. The experiment is described as follows: Agar disc diffusion assay. The note with it: 240 ug/disc, about 24 hr at 37° C.; + = zone too large to measure. On the procedure: (§1) The activity of the compounds is determined using the following assay. The compound is dissolved in DMSO at a concentration of 6 mg/ml and then diluted with water to a final concentration of 3 mg/ml in 50% DMSO (% DMSO was shown not to be inhibitory to the test organisms). An aliquot (0.08 ml) of each drug solution was transferred to filter paper discs (12.7 mm diameter, Scmeicherand Schuell) for use in the agar diffusion assay. The concentration of each drug on the filter paper disc was 240 ug/disc. The test organisms included the following: Gram-positive aerobes (Staphylococcus aureus SRI 1323, Streptococcus pneumoniae SRI 1167); Gram-negative aerobe (Proteus vulgaris SRI 180); and the yeast Candida albicans SRI 523. An agar disc diffusion assay was used to evaluate the antimicrobial activity of the test compounds. Briefly, cultures were prepared from 16-20 hr agar slant cultures by inoculating in physiological saline to a turbidity equivalent to a #0.5 McFarland turbidity standard for the bacteria and a #3 McFarland standard for C. albicans. The surface of Mueller-Hinton agar (15×100 mm plates, mm) were evenly inoculated with each standardized culture using a cotton swab. Filter paper discs containing the drug concentration listed above were then placed on the inoculated agar plates along with a disc containing the solvent used to dissolve each drug. The plates were incubated at 37° C. for about 24 hr and the diameters of the zones of inhibition measured with a vernier caliper. Positive control drugs consisted of streptomycin for use with the bacterial strains and 5-fluorocytosine for use with C. albicans. The positive control drugs were assayed as described above for the compounds of the present invention using the same concentration.
A general note: Agar diffusion results depend on both activity and mobility in agar.

In a further experiment the test system is Candida albicans SRI 523. The experiment is described as follows: Agar disc diffusion assay. The note with it: 240 ug/disc, about 24 hr at 37° C. The protocol: as §1
Experiment [3] deals with Staphylococcus aureus SRI 1323. Briefly: Agar disc diffusion assay. The conditions noted are these: 240 ug/disc, about 24 hr at 37° C. On the procedure: as §1
The next experiment has as its system Proteus vulgaris SRI 180. The experiment is described as follows: Agar disc diffusion assay. The conditions noted are these: 240 ug/disc, about 24 hr at 37° C.; 0 = no measurable zone. On the procedure:
as §1

`Cl.Cl.O=C(CCN1CCN(Cc2ccccc2)CC1)c1ccc(F)c2ccccc12` [Example 21, 1-(4″-Fluoronaphth-1″-yl)-3-(4′-benzyl-1′-piperazinyl)-1-propanone dihydrochloride]: in experiment [1], the minimal effective concentration is 20 µM. The “Diameter of the zone of inhibition, S. pneumoniae” value in experiment [2] came out at 40.7 mm. Further, the “Diameter of the zone of inhibition, C. albicans” value in the experiment with Candida albicans SRI 523 was determined as 26.6 mm. Besides, the “Diameter of the zone of inhibition, S. aureus” value in experiment [3] was found to be 33.8 mm. The “Diameter of the zone of inhibition, P. vulgaris” value with Proteus vulgaris SRI 180 is listed as 0^1 mm.

Source of the values: patent US20010025105A1, “Certain substituted 1-aryl-3-piperazine-1'-yl propanones” (Molecular Geriatarics Corporation, priority 1997, published 2001).
